One data set relates to HSV-2 (strain MS). Nature of the data set: HSV-β-Gal assay: transient expression of beta galactosidase in transfected HeLa cells superinfected with HSV-2 (in-vitro anti-HSV activity). Type of data set: cell-based. Here is the method: HeLa and Vero cell cultures were maintained in Eagles Minimal Essential Medium which was supplemented with glutamine, penecillin, streptomycin and 10% fetal calf serum (10% EMEM). Stock cultures of HSV-2 (strain MS available from ATCC VR-540) were grown in and harvested from Vero cells. Viral stocks were titered in Vero cells according to established procedures.
Plasmid pON 245^ori- contains the promoter of the HSV-1 thymidine kinase (tk) gene located immediately 5' of the E. coli lac Z gene. In this arrangement, the tk promoter controls transcription from the bacterial gene in transient expression assays. Additionally, an SV40 polyadenylation signal is present at the 3' end of the lac Z gene to allow for the efficient translation of the mRNA in eucaryotic cells. The expression of beta galactosidase in a transient assay using pON 245^ori- is dependent upon superinfection of the transfected cells with HSV. […] For example, see U.S. application Ser. No. 07/435,491 filed Sep. 5, 1989, the disclosure of which is incorporated herein by reference thereto.
HeLa cells were seeded into 96 well microtiter plates and allowed to grow to 80% confluency (approximately 35,000 cells/well). One half microgram of plasmid pON 245^ori- DNA was introduced into the cells of each well by the […] precipitation technique (Graham and Van der Eb, 1973). Four to six hours later, the cells were rinsed with Hank's Balanced Salt Soluton (HBSS), overlaid with 10% EMEM and incubated at 37° C. At 24 hrs post-trasnfection, cells were rinsed, overlaid with 10% EMEM again and re-incubated at 37° C. At 48 hrs post-transfection, cells were rinsed and overlaid with either EMEM containing 2% fetal calf serum (2% EMEM, 2% EMEM containing HSV-2 (strain MS, Multiplicity of Infection [moi]=5 pfu/cell) or 2% EMEM containing HSV-2 and the appropriate concentration of the compound to be tested. Twenty-four hrs later, the cells were harvested and assayed to beta galactosidase activity as described below.
All determinations of beta galactosidase activity were performed in 96 well microtiter plates. The intracellular level of beta galactosidase activity in each well was determined from cell lysates of the monolayer cultures. Aliquots were assayed by incubation in the presence of beta galactosidase substrate, 4-methylumbelliferyl-β-D-galactoside (MUG, 125 ug/ml, Sigma), for 2 hrs. The generation of fluorescent product was quantified on a Microfluor microfluorimeter (Dynatech) after addition of 0.1M glycine, pH 10.3 (Spaete and Mocarski, 1985). The inhibitory activity of a compound was plotted versus the concentration and an IC50 value (the concentration of compound required to reduce beta glactosidase expression by 50%) was obtained for each compound tested.

The target in data set [1] is T1, cGMP phosphodiesterase (cGMP-PDE) (Bos taurus, UniProt Q28156).
T1 construct: is a homogeneous enzyme obtained from bovine lung and purified by ion-exchange chromatography, gel filtration, and sucrose gradient centrifugation; from tissue; host or cells: bovine lung
As to the kind of experiment: Phosphodiesterase inhibition in vitro (cGMP-PDE). Type of data set: biochemical. Conditions: bovine lung enzyme, 1 μM ^3 H-cGMP, pH 7.5, 25 minutes, room temperature.

A short description of data set [2]: Compound toxicity assay: ^3 H-LEU HeLa cell translation (cytotoxicity). Conditions: human; HeLa cells, translational activity, overnight incubation at 37° C.; read-out: Cytotoxicity, ^3 H-LEU Assay IC50. Type of data set: cell-based. Here is the method: HeLa cells were treated with inhibitory compound for 24 hrs, after which levels of translational activity were assayed.
For assay of translational activity, HeLa cultures were grown to 80% confluency in 96 well microtiter plates, treated with appropriate concentrations of compound in 2% EMEM during an overnight incubation at 37° C., then rinsed with HBSS and overlaid with […] of 2% EMEM containing 8 uCi of tritiated leucine (^3 H-LEU, 141 Cu/mMol, Amersham Corp., Arlington Heights, Ill.). After a 1 hr incubation at 36.5° C., the cells were rinsed twice with phosphate buffered saline (PBS) and lysed in 400 ul/well of 1×PBS, 0.5% sodium dodecyl sulphate (SDS). After a 10 min incubation at 36.5° C., the contents of the well were transferred to a well in a Millititer HA microfiltration plate (Millipore Corp., Bedford, Mass.). The TCA insoluble proteins were precipitated onto the filter disc by a 10 min fixation with 5% TCA, followed by filtration over vacuum and three 10 minute rinses with 95% ethanol. The filters were dried at room temperature, cut from the milltitier plate and transferred to scintillation vials. TCA precipitable counts were assayed in 5 ml of Scintisol (Isolab, Akron, Ohio). The inhibitory activity of a compound was plotted versus the concentration and an IC50 value (that concentration of the compound required to decrease cellular translational activity by 50%) was derived for each compound.

Data set [3] deals with spontaneously hypertensive rats (SHR). As to the kind of experiment: SHR analysis: fall in mean blood pressure in conscious spontaneously hypertensive rats. Type of data set: in vivo, rat (SHR males). Conditions: for SHR MBP: 25 mpk (p.o.), Table IV. Here is the method: The ability of the antihypertensive compounds of the present invention to lower blood pressure can be assessed in vivo in conscious spontaneously hypertensive rats (SHR). SHR males are purchased from Taconic Farms, Germantown, N.Y. and are approximately 16-18 weeks old when anesthetized with ether. The caudal (ventral tail) artery is cannulated with polyethylene tubing (PE50) and blood pressure and heart rate are recorded as described by Baum, T. et al, J. Cardiovasc. Pharmacol. Vol. 5, pp. 665-667, (1983). Rats are placed into plastic cylindrical cages where they rapidly recover consciousness. Blood pressure and heart rate are allowed to stabilize for approximately 90 minutes prior to compound administration. Compounds are administered orally as solutions or suspensions in 0.4% aqueous methylcellulose vehicle via a feeding needle. The compound or 0.4% aqueous methylcellulose vehicle are given in a volume of 4 ml/kg to SHRs that had been fasted overnight. Activity is expressed as the fall in mean blood pressure (MBP) in millimeters of mercury (mm Hg). Compound-induced changes are compared with the changes in an appropriate placebo group.

Data set [4] concerns herpes virus. As to conditions: added to lidocaine or lidocaine hydrochloride; cited from earlier work.
The next data set deals with HSV-1. As to conditions: cited from earlier work.
The test system of the next data set is HSV-2. Conditions: cited from earlier work.
Data set [5] relates to herpes virus. As to conditions: cited from earlier work.
In another data set the test system is HSV. Conditions: cited from earlier work.
Setting [6] is: Human alphaherpesvirus 2, HeLa cells, HSV-2 strain MS, moi 5 pfu/cell, 24 hrs, read-out: Anti-HSV Activity, HSV-β-Gal Assay IC50.
[7] abbreviates: Human alphaherpesvirus 2, *Repeat, HeLa cells, HSV-2 strain MS, moi 5 pfu/cell, 24 hrs, read-out: Anti-HSV Activity, HSV-β-Gal Assay IC50 (repeat).

The source of these data is patent US5175151A, “Antiviral compounds and antihypertensive compounds” (Schering Corporation, priority 1992, dated 1992).

The term IC50 denotes the concentration that gives 50% inhibition.

Values after ≈ are worked out from the molar mass of the structure shown. Where two headings read alike, the source gives them in different places. Bounds are passed on as bounds.

For `COc1cc(=O)c2cc(C)c(C)cc2n1Cc1ccc(O)cc1` [Compound 11], the IC50 in the data set on HSV-2 (strain MS) (setting [6]) was found to be 10 mg/L (≈ 32.3 µM).

In turn, `COc1cc(=O)c2cc(OCc3ccccc3)ccc2n1Cc1ccccc1` [R H, R1 --CH3, R2 6-OCH2 Ph, R3 --CH2 Ph] yielded an IC50 in [1] of over 100 µM.

As to `CCOC(=O)c1c(OC)n(Cc2ccccc2)c2ccc(C)cc2c1=O` [Compound 9, 1-Benzyl-2-Methoxy-3-Carbethoxy-6-Methyl-4-(1H)-Quinolinone], the IC50 in the data set on HSV-2 (strain MS) (setting [6]) amounted to 3 mg/L (≈ 8.54 µM). The CC50 in data set [2] amounted to 79 mg/L (≈ 225 µM).

In the case of `COc1cc(=O)c2cc(C)c(C)cc2n1Cc1ccc(O[Si](C)(C)C(C)(C)C)cc1` [Compound 8, 1-[4-(t-Butyl-Dimethylsilyloxy)] Benzyl-2-Methoxy-6,7-Dimethyl-4-(1H)-Quinolinone], in the data set with HSV-2 (strain MS) (setting [6]), the IC50 turned out to be 2 mg/L (≈ 4.72 µM). Besides, in [2], the CC50 was 25 mg/L (≈ 59 µM).

As for `CCCCCCn1c(OC)c(C(=O)OCC)c(=O)c2ccccc21` [Compound 17], the IC50 in data set [1] came out at 14 µM.

`COc1cc(=O)c2cccc(C)c2n1C` [Compound 15]: the “SHR MBP (fall in mean blood pressure)” value in [3] (25 mpk (P.O.), Table III) was 12 mm of Hg.

Turning to `CC(C)(CO)[C@@H](O)C(=O)NCCC(=O)O` [pantothenic acid], in the data set on herpes virus [4], the “enhancement of antiviral activity on addition to lidocaine or lidocaine hydrochloride” value is reported as “significantly enhances the antiviral activity”.

In [1], `CCCCCCn1c(OC)cc(=O)c2cc(C)ccc21` [Compound 16] yielded a concentration for half-maximal inhibition (IC50) of 0.6 µM.

Regarding `COC(=O)Cn1c(OC)cc(=O)c2ccccc21` [R H, R1 --CH3, R2 --, R3 --CH2 CO2 CH3], the IC50 in [1] was over 100 µM.

For `COc1cc(=O)c2ccc(Cl)cc2n1C` [R H, R1 --CH3, R2 7-Cl, R3 --CH3], the “SHR MBP” value in data set [3] is on record as -7 mm of Hg. The IC50 in [1] was over 100 µM.

For the compound `COc1cc(=O)c2ccccc2n1Cc1ccccc1` [Compound 4, 1-Benzyl-2-Methoxy-4(1H)-Quinolinone], the figures for the IC50 (in the data set on HSV-2 (strain MS) (setting [6]); in [1]) were 20 mg/L (≈ 75.4 µM) and 2.6 µM, respectively. The CC50 in data set [2] turned out to be 45 mg/L (≈ 170 µM).

As for `COc1cc(=O)c2cc(C)ccc2n1Cc1ccccc1` [Compound 3, 1-Benzyl-2-Methoxy-6-Methyl-4(1H)-Quinolinone], the IC50 came out at 13 mg/L (≈ 46.5 µM) in the data set on HSV-2 (strain MS) (setting [6]) and 6 µM in data set [1]. In addition, in data set [2], the CC50 amounted to 85 mg/L (≈ 304 µM).

On to `CCCCCCCn1c(OC)cc(=O)c2ccccc21` [Compound 5, 1-Heptyl-2-Methoxy-4(1H)-Quinolinone], for which the IC50 with HSV-2 (strain MS) (setting [6]) turned out to be 9 mg/L (≈ 32.9 µM); in [1], 5.9 µM. The CC50 in data set [2] was found to be 45 mg/L (≈ 165 µM).

On to `COc1cc(=O)c2ccc(OC)c(C)c2o1` [Compound 10, 2,7-Dimethoxy-8-Methyl-1,4-Benzopyrone], for which the results for the IC50 (with HSV-2 (strain MS) (setting [6]); in data set [1]) were 18 mg/L (≈ 81.7 µM) and 13 µM, respectively. In data set [2], the CC50 is over 100 mg/L.

For the compound `CC(C)(CO)[C@@H](O)C(=O)NCCCO` [dexpanthenol], the “enhancement of antiviral activity on addition to lidocaine or lidocaine hydrochloride” value in the data set on herpes virus [4] is “significantly enhances the antiviral activity”.

As to `CN(C)CCOc1cc(=O)c2ccccc2n1C` [Compound 1, 1-Methyl-2-(2-Dimethylaminoethoxy)-4(1H)-Quinolinone], the IC50 in the data set with HSV-2 (strain MS) (setting [6]) was over 25 mg/L.

In the case of `COc1c(I)c(=O)c2ccccc2n1Cc1ccccc1` [Compound 13], the IC50 with HSV-2 (strain MS) (setting [6]) turned out to be 4 mg/L (≈ 10.2 µM). In addition, the CC50 in data set [2] was found to be 27 mg/L (≈ 69 µM).

Take `CCCCCCn1c(OC)cc(=O)c2cccc(C)c21` [Compound 6, 1-Hexyl-2-Methoxy-8-Methyl-4(1H)-Quinolinone]: the IC50 in the data set on HSV-2 (strain MS) (Human alphaherpesvirus 2, HeLa, 24 h, read-out: Anti-HSV Activity, HSV-β-Gal Assay IC50) is 3 mg/L (≈ 11 µM); with HSV-2 (strain MS) (setting [7]) it was 6 mg/L (≈ 21.9 µM); in data set [1], over 100 µM. For the same compound, in [2], the CC50 is 27 mg/L (≈ 98.8 µM). Further, the “SHR MBP” value in data set [3] was -1 mm of Hg.

Turning to `CCN(CC)CC(=O)Nc1c(C)cccc1C` [lidocaine, 2-(diethylamino)-N-(2,6-dimethylphenyl)acetamide], the “antiviral agent in cell culture against HSV-1” value in the data set with HSV-1 is “antiviral agent”. Moreover, the “antiviral agent in cell culture against HSV-2” value with HSV-2 is given as “antiviral agent”. The “treatment of herpes virus infections of mammals” value with herpes virus [5] is recorded as “able to treat herpes virus infections of mammals”. Moreover, the “treatment of HSV oral and genital lesions in humans” value in the data set on HSV is recorded as “particularly effective”.

Turning to `Cn1c(OCCO)cc(=O)c2ccccc21` [Compound 14], the IC50 in the data set on HSV-2 (strain MS) (setting [6]) was over 25 mg/L.

In the case of `COc1ccc2c(c1)c(=O)cc(OC)n2Cc1ccccc1` [R H, R1 --CH3, R2 6-OCH3, R3 --CH2 Ph], the IC50 in [1] is over 100 µM.

Consider `CCCCCCn1c(OC)cc(=O)c2cccc(OC)c21` [Compound 7, 1-Hexyl-2,8-Dimethoxy-4(1H)-Quinolinone], for which the IC50 is 8 mg/L (≈ 27.6 µM) in the data set on HSV-2 (strain MS) (setting [7]) and 5 mg/L (≈ 17.3 µM) in the data set on HSV-2 (strain MS) (setting [6]). Moreover, the CC50 in data set [2] is 21 mg/L (≈ 72.6 µM).

On to `COc1c(Cl)c(=O)c2cc(C)ccc2n1Cc1ccccc1` [Compound 12], for which the IC50 with HSV-2 (strain MS) (setting [6]) was 4 mg/L (≈ 12.7 µM). Besides, the CC50 in data set [2] worked out at 12 mg/L (≈ 38.2 µM).
